Reference: patent US11253501B2, “Secnidazole formulations and use in treating bacterial vaginosis” (LUPIN INC., priority 2015, dated 2022)

Tests used:
[1] = Plasma pharmacokinetics after a single oral dose in fasted healthy female subjects; type: in vivo, human; conditions: 2 gram secnidazole microgranule formulation (70% drug in core)
[2] = Urine pharmacokinetics after a single oral dose in fasted healthy female subjects; type: in vivo, human; conditions: 2 gram secnidazole microgranule formulation (70% drug in core)

In the case of Cc1ncc([N+](=O)[O-])n1CC(C)O (centres unmarked) [Secnidazole, 1-(2-hydroxypropyl)-2-methyl-5-nitromidazole], the “λz, Mean (SD)” value [1] is reported as 0.0422 (0.007544) 1/h, the “λz, Median” value [1] is reported as 0.04047 h⁻¹ and the “% FE, Geometric Mean (SD)” value [2] is reported as 14.991 (3.0081) %. For the same compound, the “% FE, Mean (SD)” value [2] was 15.300 (3.5549) %, the “% FE, Median” value [2] was 14.943% and the “Ae0-168, Geometric Mean (SD)” value [2] was 0.300 (0.0602) g. For the same compound, the “Ae0-168, Mean (SD)” value [2] was 0.306 (0.0711) g and the “Ae0-168, Median” value [2] was 0.299 g.
